Results on 27 compounds are retold here after US10604535B2, “Compounds, compositions and methods” (Denali Therapeutics Inc., priority 2016, dated 2020).

Where two headings read alike, the source gives them in different places.

In assay [1] the test system is FADD-deficient Jurkat cells. The experiment in a line: Cellular necroptosis assay (human TNFα-induced necrosis, CellTiter-Glo). To be noted: Homo sapiens, Jurkat, 48 h, read-out: Cell IC50. Format: cell-based. On the technique in general: In ATP-based viability assays light output follows the ATP content of the culture.
The target of another assay is GST-hRIPK1 (8-327) (Homo sapiens (Human), UniProt Q13546). The experiment in a line: Fluorescent Polarization Binding (FP Binding) assay.
GST-hRIPK1 (8-327), sequence (Q13546 8-327): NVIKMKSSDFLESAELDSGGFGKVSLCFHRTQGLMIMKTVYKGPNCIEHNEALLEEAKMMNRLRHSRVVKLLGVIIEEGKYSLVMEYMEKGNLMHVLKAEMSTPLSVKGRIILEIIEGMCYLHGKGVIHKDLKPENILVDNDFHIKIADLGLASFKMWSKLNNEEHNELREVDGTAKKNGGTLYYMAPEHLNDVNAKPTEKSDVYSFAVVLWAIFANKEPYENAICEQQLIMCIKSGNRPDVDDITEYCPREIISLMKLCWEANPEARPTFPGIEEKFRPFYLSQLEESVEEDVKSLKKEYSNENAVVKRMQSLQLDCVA

As for `O=C(N[C@H]1COc2cccnc2NC1=O)c1nn(Cc2ccccc2)cc1F` [Example 57, (S)-1-benzyl-4-fluoro-N-(4-oxo-2,3,4,5-tetrahydropyrido[3,2-b][1,4]oxazepin-3-yl)-1H-pyrazole-3-carboxamide], the IC50 (in assay [1] (TNFα 10 ng/mL); at GST-hRIPK1 (8-327)) was 0.1 to 1000 nM each time.

Turning to `CN1C(=O)[C@@H](NC(=O)c2nnc(C3(c4ccccc4)CC3)o2)CCc2cccnc21` [Example 145A, (S)—N-(9-methyl-8-oxo-6,7,8,9-tetrahydro-5H-pyrido[2,3-b]azepin-7-yl)-5-(1-phenylcyclopropyl)-1,3,4-oxadiazole-2-carboxamide], the IC50 (in assay [1] (TNFα 10 ng/mL); on GST-hRIPK1 (8-327)) was 0.1 to 1000 nM throughout.

Regarding `CN1C(=O)[C@@H](NC(=O)c2cc(Oc3ccccc3F)ccn2)[C@H]2C[C@H]2c2cccnc21` [Example 100A, 4-(2-fluorophenoxy)-N-((1aS,2S,8bR)-4-methyl-3-oxo-1,1a,2,3,4,8b-hexahydrocyclopropa[d]pyrido[2,3-b]azepin-2-yl)picolinamide], the IC50 (in assay [1] (TNFα 10 ng/mL); on GST-hRIPK1 (8-327)) was 0.1 to 1000 nM each time.

On to `CN1C(=O)[C@@H](NC(=O)c2cc(Cc3ccccc3)on2)CCc2nccnc21` [Example 188, (S)-5-benzyl-N-(5-methyl-6-oxo-6,7,8,9-tetrahydro-5H-pyrazino[2,3-b]azepin-7-yl)isoxazole-3-carboxamide], for which the IC50 (in assay [1] (TNFα 10 ng/mL); at GST-hRIPK1 (8-327)) was 0.1 to 1000 nM throughout.

Take `Cc1ncccc1Cn1cc(F)c(C(=O)N[C@H]2CCc3nccnc3N(C)C2=O)n1` [Example 182B, (S)-4-fluoro-N-(5-methyl-6-oxo-6,7,8,9-tetrahydro-5H-pyrazino[2,3-b]azepin-7-yl)-1-((2-methylpyridin-3-yl)methyl)-1H-pyrazole-3-carboxamide]: the IC50 (in assay [1] (TNFα 10 ng/mL); on GST-hRIPK1 (8-327)) was 0.1 to 1000 nM throughout.

With `C[C@H]1Oc2cccnc2N(C)C(=O)[C@H]1NC(=O)c1ncc(Cc2ccccc2)s1` [Example 124, 5-benzyl-N-((2R,3S)-2,5-dimethyl-4-oxo-2,3,4,5-tetrahydropyrido[3,2-b][1,4]oxazepin-3-yl)thiazole-2-carboxamide], the IC50 (in assay [1] (TNFα 10 ng/mL); at GST-hRIPK1 (8-327)) was 0.1 to 1000 nM throughout.

For the compound `CN1C(=O)[C@@H](NC(=O)c2nn(Cc3cccc(C#N)c3)cc2F)CCc2cccnc21` [Example 152B, (S)-1-(3-cyanobenzyl)-4-fluoro-N-(9-methyl-8-oxo-6,7,8,9-tetrahydro-5H-pyrido[2,3-b]azepin-7-yl)-1H-pyrazole-3-carboxamide], the IC50 (in assay [1] (TNFα 10 ng/mL); at GST-hRIPK1 (8-327)) was 0.1 to 1000 nM in each case.

Turning to `C=C1C[C@H](NC(=O)c2cc(Cc3ccccc3)on2)C(=O)N(C)c2ccccc21` [Example 3, (S)-5-benzyl-N-(1-methyl-5-methylene-2-oxo-2,3,4,5-tetrahydro-1H-benzo[b]azepin-3-yl)isoxazole-3-carboxamide], the IC50 (in assay [1] (TNFα 10 ng/mL); at GST-hRIPK1 (8-327)) was 0.1 to 1000 nM throughout.

For `C[C@H]1Oc2cccnc2N(C)C(=O)[C@H]1NC(=O)c1nn(Cc2cccc(C#N)c2)cc1F` [Example 128, 1-(3-Cyanobenzyl)-N-((2R,3S)-2,5-dimethyl-4-oxo-2,3,4,5-tetrahydropyrido[3,2-b][1,4]oxazepin-3-yl)-4-fluoro-1H-pyrazole-3-carboxamide], the IC50 (in assay [1] (TNFα 10 ng/mL); at GST-hRIPK1 (8-327)) was 0.1 to 1000 nM each time.

`CN1C(=O)[C@@H](NC(=O)c2cc(Oc3ccccc3F)cnn2)COc2cccnc21` [Example 149, (S)-5-(2-fluorophenoxy)-N-(5-methyl-4-oxo-2,3,4,5-tetrahydropyrido[3,2-b][1,4]oxazepin-3-yl)pyridazine-3-carboxamide]: the IC50 (in assay [1] (TNFα 10 ng/mL); on GST-hRIPK1 (8-327)) was 0.1 to 1000 nM in each case.

As for `Cc1c(F)c(C(=O)N[C@H]2COc3ccccc3N(C)C2=O)nn1Cc1ccccc1` [Example 6, (S)-1-benzyl-4-fluoro-5-methyl-N-(5-methyl-4-oxo-2,3,4,5-tetrahydrobenzo[b][1,4]oxazepin-3-yl)-1H-pyrazole-3-carboxamide], the IC50 (in assay [1] (TNFα 10 ng/mL); on GST-hRIPK1 (8-327)) was 0.1 to 1000 nM throughout.

As for `CN1C(=O)[C@@H](NC(=O)c2nc(F)c(Cc3ccccc3)s2)COc2cccnc21` [Example 126, (S)-5-benzyl-4-fluoro-N-(5-methyl-4-oxo-2,3,4,5-tetrahydropyrido[3,2-b][1,4]oxazepin-3-yl)thiazole-2-carboxamide], the IC50 (in assay [1] (TNFα 10 ng/mL); on GST-hRIPK1 (8-327)) was 0.1 to 1000 nM each time.

As for `CN1C(=O)C(NC(=O)c2nnc(Cc3ccccc3)[nH]2)CC(F)(F)c2ccccc21` (stereo not drawn) [Example 10, 5-benzyl-N-(5,5-difluoro-1-methyl-2-oxo-2,3,4,5-tetrahydro-1H-benzo[b]azepin-3-yl)-4H-1,2,4-triazole-3-carboxamide], the IC50 (in assay [1] (TNFα 10 ng/mL); at GST-hRIPK1 (8-327)) was 0.1 to 1000 nM throughout.

Turning to `CN1C(=O)[C@@H](NC(=O)c2cc(F)n(Cc3ccccc3)n2)COc2cccnc21` [Example 165, (S)-1-benzyl-5-fluoro-N-(5-methyl-4-oxo-2,3,4,5-tetrahydropyrido[3,2-b][1,4]oxazepin-3-yl)-1H-pyrazole-3-carboxamide], the IC50 (in assay [1]; at GST-hRIPK1 (8-327)) was 0.1 to 1000 nM in each case.

For `C[C@H]1Oc2cccnc2N(C)C(=O)[C@H]1NC(=O)c1nn(Cc2ccc(F)cc2)cc1F` [Example 143, N-((2R,3S)-2,5-dimethyl-4-oxo-2,3,4,5-tetrahydropyrido[3,2-b][1,4]oxazepin-3-yl)-4-fluoro-1-(4-fluorobenzyl)-1H-pyrazole-3-carboxamide], the IC50 (in assay [1] (TNFα 10 ng/mL); on GST-hRIPK1 (8-327)) was 0.1 to 1000 nM throughout.

On to `CN1C(=O)[C@@H](NC(=O)c2nnc(C3CCc4ccccc43)[nH]2)COc2ccccc21` (stereo partly drawn) [Example 51, 5-(2,3-dihydro-1H-inden-1-yl)-N—((S)-5-methyl-4-oxo-2,3,4,5-tetrahydrobenzo[b][1,4]oxazepin-3-yl)-4H-1,2,4-triazole-3-carboxamide], for which the IC50 (in assay [1] (TNFα 10 ng/mL); on GST-hRIPK1 (8-327)) was 0.1 to 1000 nM in each case.

With `O=C(N[C@@H]1C(=O)Nc2ncccc2[C@@H]2C[C@H]12)c1nnc(Cc2ccccc2)[nH]1` [Example 110B, 5-benzyl-N-((1aS,2S,8bR)-3-oxo-1,1a,2,3,4,8b-hexahydrocyclopropa[d]pyrido[2,3-b]azepin-2-yl)-4H-1H-1,2,4-triazole-3-carboxamide], the IC50 (in assay [1] (TNFα 10 ng/mL); on GST-hRIPK1 (8-327)) was 0.1 to 1000 nM in each case.

For `CN1C(=O)[C@@H](NC(=O)c2nnc(Cc3cc(F)cc(C#N)c3)[nH]2)COc2cccnc21` [Example 162, (S)-5-(3-cyano-5-fluorobenzyl)-N-(5-methyl-4-oxo-2,3,4,5-tetrahydropyrido[3,2-b][1,4]oxazepin-3-yl)-4H-1,2,4-triazole-3-carboxamide], the IC50 (in assay [1] (TNFα 10 ng/mL); on GST-hRIPK1 (8-327)) was 0.1 to 1000 nM in each case.

Consider `C[C@H]1Oc2cccnc2NC(=O)[C@H]1NC(=O)c1nnc(Cc2ccccc2)[nH]1` [Example 96, 5-benzyl-N-((2R,3S)-2-methyl-4-oxo-2,3,4,5-tetrahydropyrido[3,2-b][1,4]oxazepin-3-yl)-4H-1,2,4-triazole-3-carboxamide], for which the IC50 (in assay [1] (TNFα 10 ng/mL); at GST-hRIPK1 (8-327)) was 0.1 to 1000 nM in each case.

As for `C[C@H]1Oc2cc(C#N)cnc2N(C)C(=O)[C@H]1NC(=O)c1nnc(Cc2ccccc2)[nH]1` [Example 150, 5-benzyl-N-((2R,3S)-8-cyano-2,5-dimethyl-4-oxo-2,3,4,5-tetrahydropyrido[3,2-b][1,4]oxazepin-3-yl)-4H-1,2,4-triazole-3-carboxamide], the IC50 (in assay [1] (TNFα 10 ng/mL); on GST-hRIPK1 (8-327)) was 0.1 to 1000 nM in each case.

As to `Cc1c(F)c(C(=O)N[C@H]2COc3ccccc3NC2=O)nn1Cc1ccccc1` [Example 45, (S)-1-benzyl-4-fluoro-5-methyl-N-(4-oxo-2,3,4,5-tetrahydrobenzo[b][1,4]oxazepin-3-yl)-1H-pyrazole-3-carboxamide], the IC50 (in assay [1] (TNFα 10 ng/mL); at GST-hRIPK1 (8-327)) was 0.1 to 1000 nM each time.

As to `C[C@H]1Oc2cccnc2N(C)C(=O)[C@H]1NC(=O)c1nn(Cc2ccccc2)cc1Cl` [Example 132, 1-Benzyl-4-chloro-N-((2R,3S)-2,5-dimethyl-4-oxo-2,3,4,5-tetrahydropyrido[3,2-b][1,4]oxazepin-3-yl)-1H-pyrazole-3-carboxamide], the half-maximal inhibitory concentration (IC50) (in assay [1] (TNFα 10 ng/mL); at GST-hRIPK1 (8-327)) was 0.1 to 1000 nM in each case.

`C[C@H]1Oc2cccnc2N(C)C(=O)[C@H]1NC(=O)c1cc(Cc2ccccc2)no1` [Example 122, 3-benzyl-N-((2R,3S)-2,5-dimethyl-4-oxo-2,3,4,5-tetrahydropyrido[3,2-b]oxazepin-3-yl)isoxazole-5-carboxamide]: the IC50 (in assay [1] (TNFα 10 ng/mL); on GST-hRIPK1 (8-327)) was 0.1 to 1000 nM in each case.

On to `CN1C(=O)[C@@H](NC(=O)c2cc(F)n(Cc3ccc(F)cc3)n2)COc2cccnc21` [Example 166, (S)-5-fluoro-1-(4-fluorobenzyl)-N-(5-methyl-4-oxo-2,3,4,5-tetrahydropyrido[3,2-b][1,4]oxazepin-3-yl)-1H-pyrazole-3-carboxamide], for which the IC50 (in assay [1] (TNFα 10 ng/mL); on GST-hRIPK1 (8-327)) was 0.1 to 1000 nM in each case.

In the case of `C[C@H]1Oc2cc(S(C)(=O)=O)cnc2N(C)C(=O)[C@H]1NC(=O)c1nnc(Cc2ccccc2)[nH]1` [Example 147, 5-benzyl-N-((2R,3S)-2,5-dimethyl-8-(methylsulfonyl)-4-oxo-2,3,4,5-tetrahydropyrido[3,2-b][1,4]oxazepin-3-yl)-4H-1,2,4-triazole-3-carboxamide], the IC50 (in assay [1] (TNFα 10 ng/mL); at GST-hRIPK1 (8-327)) was 0.1 to 1000 nM each time.

With `O=C(N[C@H]1CCc2ccccc2-n2ccnc21)c1cc(Oc2ccccc2F)cnn1` [Example 116, (S)—N-(5,6-dihydro-4H-benzo[f]imidazo[1,2-a]azepin-4-yl)-5-(2-fluorophenoxy)pyridazine-3-carboxamide], the IC50 (in assay [1] (TNFα 10 ng/mL); on GST-hRIPK1 (8-327)) was 0.1 to 1000 nM in each case.

On to `CN1C(=O)[C@@H](NC(=O)c2nn(Cc3ccccc3)cc2F)CCc2cccnc21` [Example 111B, (S)-1-benzyl-4-fluoro-N-(9-methyl-8-oxo-6,7,8,9-tetrahydro-5H-pyrido[2,3-b]azepin-7-yl)-1H-pyrazole-3-carboxamide], for which the IC50 (in assay [1] (TNFα 10 ng/mL); on GST-hRIPK1 (8-327)) was 0.1 to 1000 nM in each case.
